# Data: US20200308546A1, “ENGINEERED CARDIOMYOCYTES AND USES THREOF” (THE J. DAVID GLADSTONE INSTITUTES, A TESTAMENTARY TRUST …, priority 2016, published 2020)
# How the values were obtained:
# iWT cardiomyocytes = test: Traction force microscopy of paced engineered cardiomyocytes (force generation, beat rate), iWT; format: cell-based, human; settings: wild-type cells, FIGS. 93-95
# Excerpt: FIG. 93 is a set of graphs showing force generation of engineered cardiomyocytes treated with a PI3K inhibitor (left) or PI3K activator (right). Relative change in force generation between iWT (black) and G296S (grey) cardiomyocytes after inhibition (circle) or activation (triangle) of P13K signaling. Traction force microscopy (TFM) measurements of CMs responding accurately to 1 Hz pacing. Data are mean±sem, *,p<0.05, **,p<0.005, ***p<0.0005 (Mann-Whitney test).
# FIG. 94 is a schematic illustrating the postulated protein-protein interaction in wild-type (top) and G296S mutant (bottom) cardiomyocytes. Beat rate measurements between iWT (black) and G296S (grey) cardiomyocytes after inhibition (circle) or activation (triangle) of P13K signaling. TFM measurements of cardiomyocytes responding accurately to 1 Hz pacing. Data are mean±sem, *,p<0.05, ** p<0.005, ***p⋅<0.0005 (Mann-Whitney test).
# A “scale-free” network (Barabasl and Albert, ⋅1999) of 716 nodes connected by 2,353 edges with an average 6.6 neighbors and path length of 4.3 (FIG. 90). Nodes were connected by edges representing physical (protein-protein) or functional (genetic, co-expression, co-occurrence) interactions. At least 5 sub-networks connected through 20 regulatory “hubs” were identified. […]
# [1] = system: hiPS cell-derived cardiomyocytes; test: Calcium flux measurements of hiPS cell-derived cardiomyocytes; format: cell-based, human; settings: isoproterenol followed by carbachol, FIG. 17
# Excerpt: A step-wise differentiation protocol was used to generate purified cardiomyocytes from the above-described iPS cell lines (FIG. 12) (Lian et al, 2012; Tohyama et al.,2013). […] The iPS cardiomyocytes spontaneously contracted, expressed high levels of sarcomeric and myofibril markers, and had membrane electrophysiology and gene expressions similar to human cardiomyocytes; 30% were binucleated (FIGS. 15 and 16). […] The protocol thus generated functional human cardiomyocytes suitable for deeper interrogation of cell identity and function.
SMILES,beat rates (iWT cardiomyocytes),calcium flux response [1]
O=c1cc(N2CCOCC2)oc2c(-c3ccccc3)cccc12 [LY294002],no effect,–
C[N+](C)(C)CCOC(N)=O [carbachol],–,expected response
CC(C)NCC(O)c1ccc(O)c(O)c1 (stereo not drawn) [isoproterenol],–,expected response
